Measurements from ChEMBL document CHEMBL1135372, “3-Aryl pyridone derivatives. Potent and selective kappa opioid receptor agonists” (Bioorg Med Chem Lett, 2002).

Columns and labels:
[1] = target: Delta-type opioid receptor (Homo sapiens, UniProt P41143); assay: Binding affinity towards delta opioid receptor by the displacement of [125I]deltorphin
Mu-type opioid receptor = Mu-type opioid receptor (Homo sapiens, UniProt P35372); assay: Binding affinity towards mu opioid receptor by the displacement of [125I]Enkephalin
[2] = target: T1, Kappa-type opioid receptor (Homo sapiens, UniProt P41145); assay: Binding affinity towards kappa opioid receptor by the displacement of [125I]-(D-Pro10)-Dynorphin A
[3] = target: T1, Kappa-type opioid receptor; assay: Functional activity in HEK293 cells overexpressing the human kappa opioid receptor was determined using a radiolabeled [35S]GTP-gamma-S, assay; format: cell-based

Chain of Delta-type opioid receptor (P41143 whole entry): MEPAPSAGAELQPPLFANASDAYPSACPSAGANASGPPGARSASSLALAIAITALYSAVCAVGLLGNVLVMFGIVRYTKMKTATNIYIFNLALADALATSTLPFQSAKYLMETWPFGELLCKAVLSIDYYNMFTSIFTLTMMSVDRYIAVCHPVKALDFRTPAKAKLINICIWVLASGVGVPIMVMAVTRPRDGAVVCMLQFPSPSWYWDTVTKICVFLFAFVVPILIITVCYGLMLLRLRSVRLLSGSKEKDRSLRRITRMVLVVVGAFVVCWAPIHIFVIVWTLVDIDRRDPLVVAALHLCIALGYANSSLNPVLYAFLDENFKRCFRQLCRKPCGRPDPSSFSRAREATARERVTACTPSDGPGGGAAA
T1 sequence (P41145 whole entry): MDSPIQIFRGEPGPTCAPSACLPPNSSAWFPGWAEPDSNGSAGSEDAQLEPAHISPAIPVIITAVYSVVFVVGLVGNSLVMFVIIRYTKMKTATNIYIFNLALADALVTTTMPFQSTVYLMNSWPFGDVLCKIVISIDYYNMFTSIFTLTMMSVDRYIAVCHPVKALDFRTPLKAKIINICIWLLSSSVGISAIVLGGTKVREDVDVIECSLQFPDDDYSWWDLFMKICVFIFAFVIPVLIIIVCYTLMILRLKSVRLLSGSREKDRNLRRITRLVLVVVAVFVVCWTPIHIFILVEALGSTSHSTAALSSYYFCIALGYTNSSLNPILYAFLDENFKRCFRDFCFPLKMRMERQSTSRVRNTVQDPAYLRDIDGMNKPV
Chain of Mu-type opioid receptor (P35372 whole entry): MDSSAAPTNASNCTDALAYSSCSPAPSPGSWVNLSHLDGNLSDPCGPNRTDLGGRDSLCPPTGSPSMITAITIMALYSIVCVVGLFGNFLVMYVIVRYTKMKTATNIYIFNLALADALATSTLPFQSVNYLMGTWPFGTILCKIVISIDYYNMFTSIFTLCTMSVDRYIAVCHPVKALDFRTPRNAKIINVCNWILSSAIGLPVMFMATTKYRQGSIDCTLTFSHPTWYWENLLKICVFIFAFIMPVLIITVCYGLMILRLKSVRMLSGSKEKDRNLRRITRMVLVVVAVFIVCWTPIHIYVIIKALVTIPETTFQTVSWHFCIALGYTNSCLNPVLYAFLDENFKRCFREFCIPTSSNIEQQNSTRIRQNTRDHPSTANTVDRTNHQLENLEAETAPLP

Row | Compound | IC50 [1] | IC50 (Mu-type opioid receptor) | IC50 [2] | ED50 [3]
1 | COc1ccc(Cl)cc1-c1cccn(C(CN2CCCC2)c2ccccc2)c1=O (centres undefined) | 4170 nM | 1240 nM | 1.5 nM | –
2 | O=c1c(-c2cccc(Cl)c2)cccn1C(CN1CCCC1)c1ccccc1 (centres undefined) | > 10000 nM | 308 nM | 2.4 nM | –
3 | O=c1c(-c2ccccc2)cccn1C(CN1CCCC1)c1ccccc1 (centres undefined) | > 10000 nM | > 10000 nM | 56.3 nM | –
4 | O=c1c(-c2cccc([N+](=O)[O-])c2)cccn1C(CN1CCCC1)c1ccccc1 (centres undefined) | > 10000 nM | 3910 nM | 2.2 nM | –
5 | O=c1c(-c2cccs2)cccn1C(CN1CCCC1)c1ccccc1 (centres undefined) | – | – | 1180 nM | –
6 | O=c1c(-c2ccc3ccccc3c2)cccn1C(CN1CCCC1)c1ccccc1 (centres undefined) | > 10000 nM | 2680 nM | 31.9 nM | –
7 | O=c1c(-c2ccc(Cl)cc2)cccn1C(CN1CCCC1)c1ccccc1 (centres undefined) | > 10000 nM | 4840 nM | 5.5 nM | –
8 | O=c1c(-c2cc(F)ccc2F)cccn1C(CN1CCCC1)c1ccccc1 (centres undefined) | > 10000 nM | > 10000 nM | 22.5 nM | –
9 | COc1ccc(-c2cccn(C(CN3CCCC3)c3ccccc3)c2=O)cc1 (centres undefined) | 5210 nM | 1460 nM | 49.4 nM | –
10 | O=c1ccc(-c2ccc(Cl)c(Cl)c2)cn1C(CN1CCCC1)c1ccccc1 (centres undefined) | – | – | 1490 nM | –
11 | N#Cc1cccc(-c2cccn(C(CN3CCCC3)c3ccccc3)c2=O)c1 (centres undefined) | > 10000 nM | 4280 nM | 5.3 nM | –
12 | COc1ccc(F)cc1-c1cccn(C(CN2CCCC2)c2ccccc2)c1=O (centres undefined) | 4350 nM | 3460 nM | 3.4 nM | –
13 | O=c1c(-c2ccccc2C(F)(F)F)cccn1C(CN1CCCC1)c1ccccc1 (centres undefined) | > 10000 nM | 1680 nM | 5.7 nM | –
14 | Cc1cccc(-c2cccn(C(CN3CCCC3)c3ccccc3)c2=O)c1 (centres undefined) | 639 nM | > 10000 nM | 79.3 nM | –
15 | O=c1c(-c2ccc(C(F)(F)F)cc2)cccn1C(CN1CCCC1)c1ccccc1 (centres undefined) | > 10000 nM | 2720 nM | 8.7 nM | 49.4 nM
16 | O=c1c(-c2ccc(OC(F)(F)F)cc2)cccn1C(CN1CCCC1)c1ccccc1 (centres undefined) | > 10000 nM | 1100 nM | 34.2 nM | –
17 | O=c1c(-c2ccc(Cl)c(Cl)c2)cccn1C(CN1CCCC1)c1ccccc1 (centres undefined) | > 10000 nM | 2060 nM | 2.3 nM | –
18 | COc1ccc(OC)c(-c2cccn(C(CN3CCCC3)c3ccccc3)c2=O)c1 (centres undefined) | > 10000 nM | > 5000 nM | 3.44 nM | –
19 | O=c1ccc(-c2ccc(Cl)cc2)cn1C(CN1CCCC1)c1ccccc1 (centres undefined) | – | – | 524 nM | –
20 | O=c1c(-c2ccc(F)cc2)cccn1C(CN1CCCC1)c1ccccc1 (centres undefined) | > 10000 nM | > 10000 nM | 34.8 nM | –
21 | O=c1c(-c2cc3ccccc3o2)cccn1C(CN1CCCC1)c1ccccc1 (centres undefined) | – | – | 271 nM | –
22 | COc1ccccc1-c1cccn(C(CN2CCCC2)c2ccccc2)c1=O (centres undefined) | > 10000 nM | 1200 nM | 19.5 nM | –
